Laboratory results taken from US5240925A (priority 1991, dated 1993).

Experiments:
Assay in all cases: whole plant or invertebrate
Assay type in all cases: in vivo
[1] = tested on: Pseudoperonospora cubensis; settings: in Cucumis sativus, 168 h, read-out: percent disease control, CDM
[2] = tested on: Piricularia oryzae; settings: Pyricularia oryzae, 192 h, read-out: percent disease control, RB
[3] = tested on: Phytophthora infestans; settings: in Solanum lycopersicum, 96 h, read-out: percent disease control, TLB
[4] = tested on: Erysiphe graminis (f. sp. tritici); settings: Blumeria graminis, 192 h; read-out: percent disease control, WPM
[5] = tested on: Puccinia graminis (f. sp. tritici Race 15B-2); settings: 240 h, read-out: percent disease control, WSR
[6] = tested on: Puccinia recondita (f. sp. tritici Races PKB and PLD); settings: 240 h, read-out: percent disease control, WLR

Compound | pest or weed control at 300 g/ha [1] | pest or weed control at 300 g/ha [2] | pest or weed control at 300 g/ha [3] | pest or weed control at 300 g/ha [4] | pest or weed control at 300 g/ha [5] | pest or weed control at 150 g/ha [3] | pest or weed control at 150 g/ha [6] | pest or weed control at 150 g/ha [4] | other results
CC1CN(CCC(C#N)(Cn2cncn2)c2ccc(Cl)cc2)CC(C)O1 (centres unmarked) [Example 4, 1-[2-(4-Chlorophenyl)-2-cyano-4-(2,6-dimethyl-4-morpholinyl)butyl]-1,2,4-triazole] | 0% | 0% | 0% | 0% | 100% | – | – | – | –
COc1ccccc1C(C#N)(Cc1ccccn1)Cn1cncn1 (centres unmarked) [Example 9, 1-[2-Cyano-2-(2-methoxyphenyl)-3-(2-pyridyl)propyl]-1,2,4-triazole] | – | – | – | – | – | 100% | 0% | 0% | pest or weed control at 150 g/ha [2]: 0%
N#CC(CCN1CCOCC1)(Cn1cncn1)c1ccc(Cl)cc1 (centres unmarked) [Example 2, 1-[2-(4-Chlorophenyl)-2-cyano-4-(4-morpholinyl)butyl]-1,2,4-triazole] | 0% | 0% | 0% | 50% | 0% | – | – | – | –
N#CC(CCc1cccs1)(Cn1cncn1)c1ccc(Cl)cc1 (centres unmarked) [Example 8, 1-[2-(4-Chlorophenyl)-2-cyano-4-(2-thienyl)butyl]-1,2,4-triazole] | – | – | – | – | – | 80% | 95% | 95% | pest or weed control at 150 g/ha [1]: 100%; pest or weed control at 150 g/ha [2]: 0%; pest or weed control at 150 g/ha [5]: 95%
COc1ccccc1C(C#N)(CC1CCCCO1)Cn1cncn1 (centres unmarked) [Example 14, 1-[2-Cyano-2-(2-methoxyphenyl)-3-(tetrahydropyran-2-yl)propyl]-1,2,4-triazole] | 0% | 0% | 0% | 99% | – | – | – | – | pest or weed control at 300 g/ha [6]: 0%
N#CC(CCc1ccccn1)(Cn1cncn1)c1ccccc1 (centres unmarked) [Example 15, 1-[2-Cyano-2-phenyl-4-(2-pyridyl)butyl]-1,2,4-triazole] | 0% | – | 85% | 85% | – | – | – | – | pest or weed control at 300 g/ha [6]: 0%
CN1CCCC(CC(C#N)(Cn2cncn2)c2ccc(Cl)cc2Cl)C1 (centres unmarked) [Example 11, 1-[2-Cyano-2-(2,4-dichlorophenyl)-3-(1-methylpiperidin-3-yl)propyl]-1,2,4-triazole] | 50% | 0% | 0% | 95% | – | – | – | – | pest or weed control at 300 g/ha [6]: 25%
CC1CN(CCCCCCCCCCCC(C#N)(Cn2cncn2)c2ccc(Cl)cc2)CC(C)O1 (centres unmarked) [Example 6, 1-[2-(4-Chlorophenyl)-2-cyano-13-(2,6-dimethyl-4-morpholinyl)tridecyl]-1,2,4-triazole] | 0% | 0% | 0% | 0% | 80% | – | – | – | –
CC1CN(CCCC(C#N)(Cn2cncn2)c2ccc(Cl)cc2)CC(C)O1 (centres unmarked) [Example 3, 1-[2-(4-Chlorophenyl)-2-cyano-5-(2,6-dimethyl-4-morpholinyl)pentyl]-1,2,4-triazole] | 0% | 0% | 0% | 0% | 50% | – | – | – | –
N#CC(CCCN1CCCCC1)(Cn1cncn1)c1ccc(Cl)cc1Cl (centres unmarked) [Example 10, 1-[2-Cyano-2-(2,4-dichlorophenyl)-5-(1-piperidinyl)pentyl]-1,2,4-triazole] | – | 50% | – | 75% | – | – | – | – | pest or weed control at 300 g/ha [6]: 25%
N#CC(CC1CCCO1)(Cn1cncn1)c1ccccc1 (centres unmarked) [Example 1, 1-[2-Cyano-2-phenyl-3-(tetrahydrofuran-2-yl)propyl]-1,2,4-triazole] | – | – | – | – | – | – | – | – | pest or weed control at 225 g/ha [1]: 10%; pest or weed control at 225 g/ha [2]: 100%; pest or weed control at 225 g/ha [3]: 5%; pest or weed control at 225 g/ha [6]: 100%; pest or weed control at 225 g/ha [4]: 100%
N#CC(Cc1cccs1)(Cn1cncn1)c1ccc(Cl)cc1 (centres unmarked) [Example 13, 1-[2-(4-Chlorophenyl)-2-cyano-3-(2-thienyl)propyl]-1,2,4-triazole] | 0% | 0% | – | – | – | 0% | 0% | 100% | pest or weed control at 150 g/ha [5]: 100%
N#CC(Cc1ccco1)(Cn1cncn1)c1ccc(Cl)cc1 (centres unmarked) [Example 12, 1-[2-(4-Chlorophenyl)-2-cyano-3-(2-furyl)propyl]-1,2,4-triazole] | – | – | – | – | – | 80% | 0% | 100% | pest or weed control at 150 g/ha [5]: 50%
CC1CN(CCCCC(C#N)(Cn2cncn2)c2ccc(Cl)cc2)CC(C)O1 (centres unmarked) [Example 5, 1-[2-(4-Chlorophenyl)-2-cyano-6-(2,6-dimethyl-4-morpholinyl)hexyl]-1,2,4-triazole] | 0% | 0% | 0% | 0% | 80% | – | – | – | –
N#CC(Cc1cccnc1)(Cn1cncn1)c1ccc(Cl)cc1 (centres unmarked) [Example 7, 1-[2-(4-Chlorophenyl)-2-cyano-3-(3-pyridyl)propyl]-1,2,4-triazole] | – | – | – | – | – | 0% | 0% | 85% | pest or weed control at 150 g/ha [2]: 0%
